Experimental data as given in ChEMBL document CHEMBL4028802, “DILIrank: the largest reference drug list ranked by the risk for developing drug-induced liver injury in humans” (Drug Discov Today, 2016).

Tests used:
Homo sapiens [1] = organism: Homo sapiens; assay: Liver toxicity in human assessed as induction of drug-induced liver injury by measuring severity class index
Homo sapiens [2] = organism: Homo sapiens; assay: Liver toxicity in human assessed as induction of drug-induced liver injury by measuring verified drug-induced liver injury concern status
Throughout, for DILI severity class: key of the grades not given here.

Row | Compound | DILI_severity_class (Homo sapiens [1]) | DILI_Concern (Homo sapiens [2])
1 | O=C(N[C@H](CO)[C@H](O)c1ccc([N+](=O)[O-])cc1)C(Cl)Cl [CHLORAMPHENICOL] | 0 | No-Dili-Concern
2 | CC(C)NCC(O)COc1ccc(CC(N)=O)cc1 (stereo not given) [ATENOLOL] | 4 | Less-Dili-Concern
3 | CNC(=O)c1cnn(-c2nc(N)c3ncn([C@@H]4O[C@H](CO)[C@@H](O)[C@H]4O)c3n2)c1 [REGADENOSON ANHYDROUS] | 0 | No-Dili-Concern
4 | CC(C)C(=O)Oc1ccc(CO)cc1[C@H](CCN(C(C)C)C(C)C)c1ccccc1 [FESOTERODINE] | 0 | No-Dili-Concern
5 | C[C@@H](O)[C@H]1C(=O)N2C(C(=O)O)=C(S[C@@H]3CN[C@H](C(=O)N(C)C)C3)[C@H](C)[C@H]12 [MEROPENEM] | 3 | Less-Dili-Concern
6 | CCc1cccc2c3c([nH]c12)C(CC)(CC(=O)O)OCC3 (stereo not given) [ETODOLAC] | 8 | Most-Dili-Concern
7 | Cl.NCCNCCNCCN | 1 | No-Dili-Concern
8 | Cc1ccc(-c2nc3ccc(C)cn3c2CC(=O)N(C)C)cc1 [ZOLPIDEM] | 7 | Ambiguous-Dili-Concern
9 | Nc1nc(NC2CC2)c2ncn([C@H]3C=C[C@@H](CO)C3)c2n1 [ABACAVIR] | 8 | Most-Dili-Concern
10 | CN1CCN(CCCN2c3ccccc3Sc3ccc(C(F)(F)F)cc32)CC1 [TRIFLUOPERAZINE] | 2 | Ambiguous-Dili-Concern
11 | NNC(=O)c1ccncc1 [ISONIAZID] | 8 | Most-Dili-Concern
12 | O=C(O)COCCN1CCN(C(c2ccccc2)c2ccc(Cl)cc2)CC1 (stereo not given) [CETIRIZINE] | 3 | Less-Dili-Concern
13 | O=[N+]([O-])O[C@@H]1CO[C@H]2[C@@H]1OC[C@H]2O | 3 | Ambiguous-Dili-Concern
14 | Cc1cc2c(s1)Nc1ccccc1N=C2N1CCN(C)CC1 [OLANZAPINE] | 3 | Less-Dili-Concern
15 | CC(C)c1c(C(=O)Nc2ccccc2)c(-c2ccccc2)c(-c2ccc(F)cc2)n1CC[C@@H](O)C[C@@H](O)CC(=O)O [ATORVASTATIN] | 5 | Most-Dili-Concern
16 | LANTHANUM CARBONATE | 0 | No-Dili-Concern
17 | CC(=O)N1CCN(c2ccc(OCC3COC(Cn4ccnc4)(c4ccc(Cl)cc4Cl)O3)cc2)CC1 (stereo not given) [KETOCONAZOLE] | 8 | Most-Dili-Concern
18 | COc1cc(Cc2cnc(N)nc2N)cc(OC)c1OC [TRIMETHOPRIM] | 4 | Less-Dili-Concern
19 | CN(C)/N=N/c1[nH]cnc1C(N)=O [DACARBAZINE] | 6 | Most-Dili-Concern
20 | CCCCCNC(=N)N/N=C/c1c[nH]c2ccc(OC)cc12 [TEGASEROD] | 3 | Ambiguous-Dili-Concern
21 | CC1(C)NC(=O)N(c2ccc([N+](=O)[O-])c(C(F)(F)F)c2)C1=O [NILUTAMIDE] | 8 | Most-Dili-Concern
22 | CN[C@@H]1[C@H](O)[C@H](NC)[C@H]2O[C@@]3(O)C(=O)C[C@@H](C)O[C@H]3O[C@@H]2[C@H]1O [SPECTINOMYCIN] | 3 | Ambiguous-Dili-Concern
23 | CCCCC[C@](C)(O)/C=C/[C@@H]1[C@@H](C/C=C\CCCC(=O)O)[C@@H](O)C[C@H]1O.NC(CO)(CO)CO [CARBOPROST TROMETHAMINE] | 0 | No-Dili-Concern
24 | COCCc1ccc(OCC(O)CNC(C)C)cc1 (stereo not given) [METOPROLOL] | 5 | Less-Dili-Concern
25 | Cn1c(=O)c2c(ncn2CC(O)CO)n(C)c1=O (stereo not given) [DYPHYLLINE] | 0 | No-Dili-Concern
